The record followed here is US20260201008A1, “SECRETIN-DERIVED GLP1R SELECTIVE AGONISTS” (GUBRA A/S, priority 2023, published 2026).

One data set addresses SCTR (Homo sapiens, UniProt P47872). Kind of data set: hSCTR potency, cAMP accumulation in CHO-K1 cells stably overexpressing hSCTR. The class given is cell-based. Further details: alternatively Euroscreen ES-712-AF; FAST-0161L; host or cells: CHO-K1. The essentials:
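In this Gs cAMP assay, stably transfected CHO-K1 hSCTR cells were stimulated at room temperature for 30 min in IBMX-containing buffer. Time-resolved FRET gave the signal. Replicates were increased when the top concentration changed or EC50 values differed 5-fold.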
(In general: Cyclic AMP is a second messenger, typically raised through Gs and lowered through Gi signalling.)

The target of a further data set is GLP1R (Homo sapiens, UniProt P43220). Kind of data set: hGLP1R potency, cAMP accumulation in CHO-K1 cells stably overexpressing hGLP1R. The class given is cell-based. Further details: host or cells: CHO-K1. The conditions noted are these: for Selectivity: SCTR EC50/GLP1R EC50 ratio. The essentials: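 In the presence of 0.5 mM IBMX, compounds stimulated the cells for 30 minutes at room temperature. Accumulated cAMP was then detected by TR-FRET, with EC50 values fitted by variable-slope nonlinear regression.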
Chain of GLP1R (P43220 24-463): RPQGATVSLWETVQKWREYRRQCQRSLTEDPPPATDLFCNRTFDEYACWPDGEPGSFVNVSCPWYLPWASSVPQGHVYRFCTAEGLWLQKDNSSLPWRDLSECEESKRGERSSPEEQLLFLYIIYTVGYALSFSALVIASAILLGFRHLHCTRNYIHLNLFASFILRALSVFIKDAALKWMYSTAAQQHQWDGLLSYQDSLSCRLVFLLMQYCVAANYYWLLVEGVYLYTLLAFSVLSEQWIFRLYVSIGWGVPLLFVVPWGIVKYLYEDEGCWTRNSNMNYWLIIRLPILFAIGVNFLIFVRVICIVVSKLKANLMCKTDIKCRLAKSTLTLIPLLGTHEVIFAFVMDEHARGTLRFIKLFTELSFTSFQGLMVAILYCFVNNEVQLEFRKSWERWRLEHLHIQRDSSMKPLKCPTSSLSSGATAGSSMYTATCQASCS

A short description of data set [1]: Turbidity of crude library peptides (absorbance at 600 nm). The class given is physicochemical. The conditions noted are these: Physical stability of peptides. As for the experimental part: (§1) Peptides were dissolved in buffers (50 mM sodium acetate at pH 4.0, or 50 mM sodium phosphate at pH 7.0) to 267 μM and incubated for 1-2 hours at room temperature. The samples were then divided into two replicates of 80 μl in a black 384 well plate (μ-clear, Greiner Bio-One) and mixed with Thioflavin T (ThT) to a final concentration of 4 μM. The plate was centrifuged for 2 min at 2000 rpm to remove air bubbles, sealed, and placed in a plate reader (CLARIOstar, BMG). Firstly, turbidity of the samples was measured as the absorbance at 600 nm. Secondly, the plate reader temperature was set to 40° C. and the fluorescence was measured every 10 min for 72 hours by exciting the ThT at 450 nm and measuring the emission at 480 nm. Samples were stressed by shaking the plate at 700 rpm (linear) for five minutes before every measurement, and fibril formation was determined as the average emission for each sample.

The nature of data set [2]: Fibril formation of crude library peptides (Thioflavin T). The class given is physicochemical. Further details: key: average ThT fluorescence emission at 480 nm (ex 450 nm), raw units. The conditions noted are these: Physical stability of peptides. The method, then: as §1
[3] abbreviates: cAMP accumulation, CHO-K1 cells overexpressing hSCTR, read-out: pEC50 hSCTR (converted).
The mark [4] stands for this setting: cAMP accumulation, CHO-K1 cells overexpressing hGLP1R, read-out: pEC50 hGLPR1 (converted).

Like-named read-outs stand apart in the source and are kept apart here. Numbered stars: 1 amine (or outer) side, 2 acyl side, 3 side chain; on linkers, the order of the positions; unused ones are H or OH. Square brackets hold non-standard residues; d marks the D form. Side chains are listed from the residue outwards. Peptide text beside a SMILES is read from it. * marks the point of attachment. C20 diacid = O=C(O)CCCCCCCCCCCCCCCCCCC(=O)*; γGlu = O=C(O)[C@H](CCC(=O)[*:2])N[*:1]; AEEA = NCCOCCOCC(=O)O; Aib = CC(C)(N)C(=O)O

Chain of SCTR (P47872 23-440): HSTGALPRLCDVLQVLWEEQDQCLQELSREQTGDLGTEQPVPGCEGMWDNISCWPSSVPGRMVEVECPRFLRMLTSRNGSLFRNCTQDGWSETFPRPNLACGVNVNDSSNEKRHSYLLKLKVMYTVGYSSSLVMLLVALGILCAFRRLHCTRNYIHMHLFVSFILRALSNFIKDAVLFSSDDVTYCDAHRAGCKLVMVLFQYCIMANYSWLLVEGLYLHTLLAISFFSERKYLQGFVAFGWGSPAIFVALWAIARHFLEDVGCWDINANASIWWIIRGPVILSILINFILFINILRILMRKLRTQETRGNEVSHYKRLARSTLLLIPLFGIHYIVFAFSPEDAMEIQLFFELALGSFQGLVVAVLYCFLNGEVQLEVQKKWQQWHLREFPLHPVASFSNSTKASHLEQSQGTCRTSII

Consider `CC(C)C[C@H](NC(=O)[C@H](Cc1ccccc1)NC(=O)[C@H](CCCNC(=N)N)NC(=O)[C@H](CCC(N)=O)NC(=O)[C@H](CO)NC(=O)[C@H](C)NC(=O)[C@H](C)NC(=O)[C@H](Cc1ccccc1)NC(=O)[C@H](CCC(=O)O)NC(=O)[C@H](CCCCNC(=O)COCCOCCNC(=O)COCCOCCNC(=O)CC[C@H](NC(=O)CCCCCCCCCCCCCCCCCCC(=O)O)C(=O)O)NC(=O)[C@H](CC(C)C)NC(=O)[C@H](CCC(=O)O)NC(=O)[C@H](CO)NC(=O)[C@@H](NC(=O)[C@H](CC(=O)O)NC(=O)[C@H](CO)NC(=O)[C@@H](NC(=O)[C@H](Cc1ccccc1)NC(=O)[C@@H](NC(=O)CNC(=O)[C@H](CCC(=O)O)NC(=O)C(C)(C)NC(=O)[C@@H](N)Cc1c[nH]cn1)[C@@H](C)O)[C@@H](C)O)C(C)C)C(=O)N[C@@H](CCC(=O)O)C(=O)N[C@@H](Cc1c[nH]cn1)C(=O)N[C@@H](CC(C)C)C(=O)N[C@H](C(N)=O)C(C)C` [compound 8] (H-H[Aib]EGTFTSDVSELK([AEEA-AEEA-γGlu-C20 diacid])EFAASQRFLEHLV-NH2), for which the EC50 at SCTR (setting [3]) was 1580 nM; on GLP1R (setting [4]) it was 0.0501 nM. In addition, at GLP1R, the Selectivity was found to be 30095. Further, the “Turbidity (pH 7)” value in data set [1] came out at 0.09. In data set [2], this compound yielded a Fibril formation of 259534.
The corresponding values for `CC(C)C[C@H](NC(=O)[C@H](CCC(=O)O)NC(=O)[C@H](CCCCNC(=O)COCCOCCNC(=O)COCCOCCNC(=O)CC[C@H](NC(=O)CCCCCCCCCCCCCCCCCCC(=O)O)C(=O)O)NC(=O)[C@H](CC(C)C)NC(=O)[C@H](CCCNC(=N)N)NC(=O)[C@H](CO)NC(=O)[C@@H](NC(=O)[C@H](CC(=O)O)NC(=O)[C@H](CO)NC(=O)[C@@H](NC(=O)[C@H](Cc1ccccc1)NC(=O)[C@@H](NC(=O)CNC(=O)[C@H](CCC(=O)O)NC(=O)C(C)(C)NC(=O)[C@@H](N)Cc1c[nH]cn1)[C@@H](C)O)[C@@H](C)O)C(C)C)C(=O)N[C@@H](C)C(=O)N[C@@H](C)C(=O)N[C@@H](C)C(=O)N[C@@H](CCC(N)=O)C(=O)N[C@@H](CCCNC(=N)N)C(=O)N[C@@H](Cc1ccccc1)C(=O)N[C@@H](CC(C)C)C(=O)N[C@@H](CCC(=O)O)C(=O)N[C@@H](Cc1c[nH]cn1)C(=O)N[C@@H](CC(C)C)C(=O)N[C@H](C(N)=O)C(C)C` [compound 9] (H-H[Aib]EGTFTSDVSRLK([AEEA-AEEA-γGlu-C20 diacid])ELAAAQRFLEHLV-NH2) are 1000 nM, 0.0631 nM, 13668, 0.08 and 10378.
On the same counts, the results for `CC(C)C[C@H](NC(=O)[C@H](CCC(=O)O)NC(=O)[C@H](CCCCNC(=O)COCCOCCNC(=O)COCCOCCNC(=O)CC[C@H](NC(=O)CCCCCCCCCCCCCCCCCCC(=O)O)C(=O)O)NC(=O)[C@H](CC(C)C)NC(=O)[C@H](CCCNC(=N)N)NC(=O)[C@H](CO)NC(=O)[C@@H](NC(=O)[C@H](CC(=O)O)NC(=O)[C@H](CO)NC(=O)[C@@H](NC(=O)[C@H](Cc1ccccc1)NC(=O)[C@@H](NC(=O)CNC(=O)[C@H](CCC(=O)O)NC(=O)C(C)(C)NC(=O)[C@@H](N)Cc1c[nH]cn1)[C@@H](C)O)[C@@H](C)O)C(C)C)C(=O)N[C@@H](C)C(=O)N[C@@H](C)C(=O)NC(C)(C)C(=O)N[C@@H](CCC(N)=O)C(=O)N[C@@H](CCCNC(=N)N)C(=O)N[C@@H](Cc1ccccc1)C(=O)N[C@@H](CC(C)C)C(=O)N[C@@H](CCC(=O)O)C(=O)N[C@@H](Cc1c[nH]cn1)C(=O)N[C@@H](CC(C)C)C(=O)N[C@H](C(N)=O)C(C)C` [compound 10] (H-H[Aib]EGTFTSDVSRLK([AEEA-AEEA-γGlu-C20 diacid])ELAA[Aib]QRFLEHLV-NH2) are 501 nM, 0.2 nM, 2365, 0.08 and 6765.
Compound `CC(C)C[C@H](NC(=O)[C@H](CCC(=O)O)NC(=O)[C@H](CCCCNC(=O)COCCOCCNC(=O)COCCOCCNC(=O)CC[C@H](NC(=O)CCCCCCCCCCCCCCCCCCC(=O)O)C(=O)O)NC(=O)[C@H](CC(C)C)NC(=O)[C@@H](NC(=O)[C@H](CO)NC(=O)[C@@H](NC(=O)[C@H](CC(=O)O)NC(=O)[C@H](CO)NC(=O)[C@@H](NC(=O)[C@H](Cc1ccccc1)NC(=O)[C@@H](NC(=O)CNC(=O)[C@H](CCC(=O)O)NC(=O)C(C)(C)NC(=O)[C@@H](N)Cc1c[nH]cn1)[C@@H](C)O)[C@@H](C)O)C(C)C)[C@@H](C)O)C(=O)N[C@@H](C)C(=O)N[C@@H](C)C(=O)N[C@@H](C)C(=O)N[C@@H](CCC(N)=O)C(=O)N[C@@H](CCCNC(=N)N)C(=O)N[C@@H](Cc1ccccc1)C(=O)N[C@@H](CC(C)C)C(=O)N[C@@H](CCC(=O)O)C(=O)N[C@@H](Cc1c[nH]cn1)C(=O)N[C@@H](CC(C)C)C(=O)N[C@H](C(N)=O)C(C)C` [compound 11] (H-H[Aib]EGTFTSDVSTLK([AEEA-AEEA-γGlu-C20 diacid])ELAAAQRFLEHLV-NH2) showed an EC50 at SCTR of 631 nM. Also, at GLP1R, the EC50 is 0.0501 nM and the Selectivity amounted to 11347. In addition, the “Turbidity (pH 7)” value in data set [1] came to 0.08. In data set [2], this compound displayed a Fibril formation of 7854.
Regarding `CC(C)C[C@H](NC(=O)[C@H](CCC(=O)O)NC(=O)[C@H](CCCCNC(=O)COCCOCCNC(=O)COCCOCCNC(=O)CC[C@H](NC(=O)CCCCCCCCCCCCCCCCCCC(=O)O)C(=O)O)NC(=O)[C@H](CC(C)C)NC(=O)[C@H](CCC(=O)O)NC(=O)[C@H](CO)NC(=O)[C@@H](NC(=O)[C@H](CC(=O)O)NC(=O)[C@H](CO)NC(=O)[C@@H](NC(=O)[C@H](Cc1ccccc1)NC(=O)[C@@H](NC(=O)CNC(=O)[C@H](CCC(=O)O)NC(=O)C(C)(C)NC(=O)[C@@H](N)Cc1c[nH]cn1)[C@@H](C)O)[C@@H](C)O)C(C)C)C(=O)N[C@@H](C)C(=O)N[C@@H](C)C(=O)N[C@@H](CO)C(=O)N[C@@H](CCC(N)=O)C(=O)N[C@@H](CCCNC(=N)N)C(=O)N[C@@H](Cc1ccccc1)C(=O)N[C@@H](CC(C)C)C(=O)N[C@@H](CCC(=O)O)C(=O)N[C@@H](Cc1c[nH]cn1)C(=O)N[C@@H](CC(C)C)C(=O)N[C@H](C(N)=O)C(C)C` [compound 12] (H-H[Aib]EGTFTSDVSELK([AEEA-AEEA-γGlu-C20 diacid])ELAASQRFLEHLV-NH2), the results for the EC50 on SCTR (setting [3]) and at GLP1R (setting [4]) were 631 nM and 0.02 nM, respectively. Further, at GLP1R, the Selectivity is reported as 33473. Moreover, the “Turbidity (pH 7)” value in data set [1] is 0.09. In data set [2], the Fibril formation was determined as 7904.
